The values below come from US11091509B2, “HPPK inhibitors useful as antibacterial agents” (priority 2016, dated 2021).

The target in the test is HPPK (Escherichia coli, UniProt P26281). Put plainly: HPPK binding study by fluorometric titration (Kd). The conditions noted are these: for affinity compared with previously known HPPK inhibitors: comparison in words. The protocol: Binding studies were carried out at room temperature. Protein (HPPK) and ligand stock solutions were made in 100 mM Tris-HCl, pH 8.3, and their concentrations were determined spectrophotometrically using the following extinction coefficients: 21600 M^−1 cm^−1 at 280 nm for HPPK and 7124 M^−1 cm^−1 at 380 nm for the tetrahydropteridine bisubstrate inhibitors of Formula I. A 3-mL dilute inhibitor solution in a fluorometric cuvette was titrated with the protein stock solution. Fluorescence was measured on a Horiba Jobin Yvon FluoroMax-4 fluorometer. The excitation wavelength and slit were 364-380 and 2-3 nm, respectively, and the emission wavelength and slit were 450-482 and 2-5 nm, respectively. […] For these HPPK preparations, a control experiment, in which a 3-mL buffer solution was titrated with the protein solution, was performed. The control data was subtracted from the titration data. The corrected titration data was then analyzed by nonlinear least-squares regression using the software Origin and the equation: […]
where Fobs is the observed fluorescence, εf and εb are the fluorescence coefficients of the ligand in the free and protein-bound states, respectively, Lt is the total concentration of the ligand, and Et is the total concentration of HPPK. Lt and Et were varied during the titration process according to the following expressions:
where E0 is the concentration of the HPPK stock solution, L0 is the initial concentration of the ligand, V0 is the initial volume of the titration, and ΔV is the total volume of the added HPPK solution.

Setting [1] is: room temperature, 100 mM Tris-HCl pH 8.3, inhibitor titrated with HPPK, fluorescence, nonlinear least-squares analysis, read-out: Kd.

Where two headings read alike, the source gives them in different places.

Sequence of HPPK (P26281 whole entry): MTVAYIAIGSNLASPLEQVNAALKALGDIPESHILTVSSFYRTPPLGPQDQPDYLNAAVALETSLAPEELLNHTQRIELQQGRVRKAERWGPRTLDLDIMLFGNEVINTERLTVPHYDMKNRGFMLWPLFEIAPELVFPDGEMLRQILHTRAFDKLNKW

Turning to `CC1(C)Nc2nc(N)[nH]c(=O)c2N=C1C(=O)NC1CCN(CCSC[C@H]2O[C@@H](n3cnc4c(N)ncnc43)[C@H](O)[C@@H]2O)CC1` [Compound 101, 2-amino-N-(1-(2-((((2S,3S,4R,5R)-5-(6-amino-9H-purin-9-yl)-3,4-dihydroxytetrahydrofuran-2-yl)methyl)thio)ethyl)piperidin-4-yl)-7,7-dimethyl-4-oxo-3,4,7,8-tetrahydropteridine-6-carboxamide], the Kd (in general, the concentration at which binding is half-saturated) under setting [1] was 11500 nM.
For the compound `CC1(C)Nc2nc(N)[nH]c(=O)c2N=C1C(=O)NCC(=O)N(CC(=O)NC[C@H]1O[C@@H](n2cnc3c(N)ncnc32)C(O)C1O)CP(=O)(O)O` (stereo partly shown) [Compound 114], binding was put at a Kd of 1800 nM and the “affinity compared with previously known HPPK inhibitors” value was “significantly higher”.
As for `CC1(C)Nc2nc(N)[nH]c(=O)c2N=C1C(=O)NCCN(CC(=O)NC[C@H]1O[C@@H](n2cnc3c(N)ncnc32)C(O)C1O)CP(=O)(O)O` (stereo partly shown) [Compound 115], the Kd came to 2900 nM.
Consider `CC1(C)Nc2nc(N)[nH]c(=O)c2N=C1C(=O)NCCN(CCSC[C@H]1O[C@@H](n2cnc3c(N)ncnc32)[C@H](O)[C@@H]1O)CP(=O)(O)O` [Compound 118, (((2-(2-amino-7,7-dimethyl-4-oxo-3,4,7,8-tetrahydropteridine-6-carboxamido)ethyl)(2-((((2S,3S,4R,5R)-5-(6-amino-9H-purin-9-yl)-3,4-dihydroxytetrahydrofuran-2-yl)methyl)thio)ethyl)amino)methyl)phosphonic acid], for which binding was characterised by a dissociation constant (Kd) of 400 nM and the “affinity compared with previously known HPPK inhibitors” value was “significantly higher”.
As for `CC1(C)Nc2nc(N)[nH]c(=O)c2N=C1C(=O)NCCN1CC[C@@H](SC[C@H]2O[C@@H](n3cnc4c(N)ncnc43)[C@H](O)[C@@H]2O)C[C@@H]1C(=O)O` [Compound 120, (2R,4R)-1-(2-(2-amino-7,7-dimethyl-4-oxo-3,4,7,8-tetrahydropteridine-6-carboxamido)ethyl)-4-((((2S,3S,4R,5R)-5-(6-amino-9H-purin-9-yl)-3,4-dihydroxytetrahydrofuran-2-yl)methyl)thio)piperidine-2-carboxylic acid], the Kd under setting [1] worked out at 300 nM.
